Laboratory results from ChEMBL document CHEMBL1130146, “Fused pyrrolo[2,3-c]carbazol-6-ones: novel immunostimulants that enhance human interferon-gamma activity” (J Med Chem, 1997).

Experiments:
THP-1 [1] = assay: Compound (2 uM) was screened for potentiation of IFN-gamma (0 units/mL)-induced expression of HLA-DR in THP-1 cells; format: functional, Homo sapiens
THP-1 [2] = assay: Compound (0 uM) was screened for potentiation of IFN-gamma (0 units/mL)-induced expression of HLA-DR in THP-1 cells; format: functional, Homo sapiens
THP-1 [3] = assay: Compound (2 uM) was screened for potentiation of IFN-gamma (100 units/mL)-induced expression of HLA-DR in THP-1 cells; format: functional, Homo sapiens
Protein kinase C (PKC) = assay: Inhibition of protein kinase C; format: protein assay, Rattus norvegicus
THP-1 [4] = assay: Compound (0 uM) was screened for potentiation of IFN-gamma (100 units/mL)-induced expression of HLA-DR in THP-1 cells; format: functional, Homo sapiens

Row | IC50 (Protein kinase C (PKC)) [µM] | Structure (SMILES) | Enhancement (THP-1 [1]) [%] | Enhancement (THP-1 [2]) [%] | Enhancement (THP-1 [3]) [%] | Enhancement (THP-1 [4]) [%]
1 | > 10 | O=C1Cc2c(c3c4ccccc4[nH]c3c3[nH]c4ccccc4c23)N1 | 0 | 0 | 130 | 100
2 | > 10 | O=C1Cc2c(c3c4ccccc4sc3c3[nH]c4ccccc4c23)N1 | 0 | 0 | 153 | 100
3 | > 10 | O=C1Cc2c(c3c4ccccc4oc3c3[nH]c4ccccc4c23)N1 | 0 | 0 | 108 | 100
4 | > 10 | O=C1Cc2c(c3c(c4[nH]c5ccccc5c24)Cc2ccccc2-3)N1 | 0 | 0 | 160 | 100
